Experimental data published in patent US20250302831A1, “THERAPY FOR ALCOHOL-RELATED LIVER DISEASE” (THE REGENTS OF THE UNIVERSITY OF CALIFORNIA, priority 2021, published 2025).

What was measured:
[1] = biological target: T1, hM4 (Homo sapiens, UniProt P08173); conditions: read-out: hM4 (PAM) EC50; cited from earlier work
T1 sequence (P08173 1-479): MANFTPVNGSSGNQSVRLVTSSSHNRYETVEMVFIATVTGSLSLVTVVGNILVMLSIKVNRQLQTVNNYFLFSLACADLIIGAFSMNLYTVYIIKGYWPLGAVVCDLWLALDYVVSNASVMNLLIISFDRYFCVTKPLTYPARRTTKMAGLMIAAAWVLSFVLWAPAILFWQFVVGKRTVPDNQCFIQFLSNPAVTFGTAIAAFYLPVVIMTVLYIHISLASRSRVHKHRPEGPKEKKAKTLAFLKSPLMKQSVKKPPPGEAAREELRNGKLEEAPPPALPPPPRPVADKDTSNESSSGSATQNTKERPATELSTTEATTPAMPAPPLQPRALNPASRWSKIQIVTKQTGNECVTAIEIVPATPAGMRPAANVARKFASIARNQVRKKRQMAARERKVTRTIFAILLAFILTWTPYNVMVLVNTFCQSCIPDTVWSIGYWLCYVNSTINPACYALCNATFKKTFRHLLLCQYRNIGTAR

[2] = Bubser 2014; Pancani 2015; Gould 2018; cited from earlier work
[3] = test system: rodent model; conditions: systemic administration; Walker et al., 2020; cited from earlier work
[4] = Bubser 2014; Pancani 2015; Gould 2018; cited from earlier work; remark: listed apart in the source
[5] = test system: WT C57BL/6 mice fed ethanol containing Lieber DeCarli diet; experiment: mAChR4 PAM VU0467154 in chronic ethanol feeding (Lieber DeCarli diet) of WT mice; assay type: in vivo, mouse
Excerpt: Female mice (age, 8 weeks) were placed on Lieber DeCarli diet for 10 weeks as previously described (Llorente et al., 2017). In brief, the Lieber DeCarli diet comprises Micro Stabilized Rod Liq AC IRR 438 (LD101A; TestDiet), Maltodextrin IRR (9598; TestDiet) and 200-proof ethanol (Koptec). The caloric intake from ethanol was 0 on day 1, 10% of total calories on days 2 and 3, 20% on days 4 and 5, 30% from day 6 until the end of 6 weeks, and 36% until the end of the treatment. Control mice received an isocaloric amount of iso-maltose instead of ethanol.
To enhance GAP formation, WT C57BL/6 mice fed Lieber DeCarli diet containing ethanol or isocaloric iso-maltose for 10 weeks were treated for the last 29 days with the specific mAChR4 PAM VU0467154 (5 mg/kg), which was dissolved in the liquid diet. […]
Real-time quantitative PCR. RNA was extracted from mouse tissues and cDNA was generated 511 (Duan et al., 2019). Primer sequences for mouse genes were obtained from the NIH qPrimerDepot. Gene expression was determined with Sybr Green (Bio-Rad Laboratories) using ABI StepOnePlus real-time PCR system. The qPCR value was normalized to Tbp or 18S housekeeping genes. To quantify the total bacterial load in feces, the 515 qPCR value of 16S rRNA gene for each sample was multiplied by the total amount of DNA (μg) mg^−1 of feces. Published bacterial primer sequences were used for 16S rRNA gene (Maeda et al., 2003) (Table 3). […]
Flow cytometry. Isolation: Small intestine was harvested, and the epithelial cell layer was removed. Pieces were digested in media containing 1 mg/mL collagenase (Millipore Sigma), 0.1 U/mL dispase (Worthington Biochem) and 0.1 mg/mL DNase I (Millipore Sigma) at 37° C. at 150 rpm for 30 minutes. A 40% and 80% Percoll gradient was used to collect the lymphoid fractions at the interphase. Flow cytometry: LP-immune cells were pelleted and blocked with anti-mouse CD16/32 antibody (Thermo Fisher) for 15 minutes. Cells were divided to perform 3 different panels to analyze APCs, ILC3 and Tregs.
Stimulation and staining: To stimulate IL-23 secretion by LP-DCs, cells were re-stimulated in vitro with 100 ng/ml flagellin (Invivogen) for 2.5 hours in the presence of 0.7 μl/ml BD GolgiStop™ (BD Bioscience) to accumulate cytokines and/or proteins. The murine APC panel consisted of CD45.2 (V500, clone 104, BD), CD11c (FITC, clone N418, ThermoFisher), MHC Class II (I-A/I-E) (PE, clone M5/114. 15.2, ThermoFisher), CD11b (PerCP544 Cy5.5, clone M1/70, BD), CD103 (APC-R700, clone M290, BD), CX3CR1 (BV421, clone SA011F11, BioLegend), fixable viability stain (FVS) (575V, BD), IL-10 (BV711, clone JES5-16E3, BD) and IL-23 p19 (AF647, clone N71-1183).
Immunoblot analyses. To measure expression levels of mAChR4, GCs were isolated as described above. Immunoblot analysis was performed as described 33 using anti-AChR4 1:1000 (#AMR-004; Alomone labs) and anti-β-actin 1:5000 (Sigma-Aldrich) antibody as loading control. Protein from proximal small intestine was extracted and immunoblot analysis was performed using anti-Reg3g 1:500 (ab198216, Abcam), anti-Reg3b 1:500 (ABIN1870289, Antibodies online), and anti-IL-10 1:1000 (sc-365858; Santa Cruz Biotechnology) antibodies. Stain-free imaging technology using polyacrylamide gels (BioRad) containing a proprietary trihalo compound to make proteins fluorescent, was employed to calculate total protein. Immunoblots were visualized with a charged coupling device camera in a luminescent image analyzer (Gel-Doc; Bio-Rad). Immunoblots were analyzed by densitometry, using Image Lab version 6.0.1 software (Bio-Rad).

[6] = biological target: T2, mAChR4 (Homo sapiens, UniProt P08173); conditions: target not printed with the value; cited from earlier work
T2 sequence (P08173 1-479): T1 sequence (P08173 1-479)

[7] = test system: small intestinal organoids from WT mice; experiment: IL-6 stimulation of small intestinal organoids (Chrm4 mRNA, mAChR4 immunoblot); assay type: cell-based, mouse; conditions: IL-6 20 ng/ml in the presence of ethanol for 12 hours
Experimental: Real-time quantitative PCR. RNA was extracted from mouse tissues and cDNA was generated 511 (Duan et al., 2019). Primer sequences for mouse genes were obtained from the NIH qPrimerDepot. Gene expression was determined with Sybr Green (Bio-Rad Laboratories) using ABI StepOnePlus real-time PCR system. The qPCR value was normalized to Tbp or 18S housekeeping genes. To quantify the total bacterial load in feces, the 515 qPCR value of 16S rRNA gene for each sample was multiplied by the total amount of DNA (μg) mg^−1 of feces. Published bacterial primer sequences were used for 16S rRNA gene (Maeda et al., 2003) (Table 3).
Small intestinal organoid isolation and culture. Small intestinal crypts were isolated from WT mice, cultured and stained as described 41 and treated with ethanol (10 and 50 mM) and IL-6 (20 ng/ml) (Biolegend) for 12 hours.
Immunoblot analyses. To measure expression levels of mAChR4, GCs were isolated as described above. Immunoblot analysis was performed as described 33 using anti-AChR4 1:1000 (#AMR-004; Alomone labs) and anti-β-actin 1:5000 (Sigma-Aldrich) antibody as loading control. […] Immunoblots were analyzed by densitometry, using Image Lab version 6.0.1 software (Bio-Rad).

[8] = test system: cultured GCs; experiment: IL-6 treatment of cultured goblet cells; assay type: cell-based
[9] = ethanol diet 10 weeks, 5 mg/kg in the diet during the last 29 days
[10] = ethanol fed mice, anaerobic culture
[11] = ethanol fed mice, cells stimulated with flagellin 100 ng/ml 2.5 hours
[12] = ethanol fed mice, proximal small intestine

For `Cc1nnc2sc(C(=O)NC3CN(c4cccnc4)C3)c(N)c2c1C` [PT-1148], the EC50 [1] is listed as 3 nM.
In the case of `CCOC(=O)N1CCCC(N2CCC(c3cccnc3OC)CC2)CC1` (centres unmarked) [PT-6950], the EC50 [1] is listed as 20 nM.
For `Cc1nnc2sc(C(=O)NCc3ccc(S(=O)(=O)C(F)(F)F)cc3)c(N)c2c1C` [VU0467154], the “gastrointestinal motility side effects” value [2] is given as “no gastrointestinal motility side effects”, the “ethanol seeking and consumption” value [3] is given as “reduced” and the oral bioavailability [4] is given as “excellent”. For the same molecule, the “ethanol-induced liver inflammation (hepatic Cxcl1 mRNA)” value [5, 9] was “protected”, the “ethanol-induced liver injury (plasma ALT, H&E)” value [5, 9] was “protected” and the “ethanol-induced steatosis (ORO-stained liver sections)” value [5, 9] was “protected”. The “ethanol-induced GAP closure (number of GAPs per villus)” value ([5]; ethanol diet 10 weeks, 5 mg/kg in the diet during the last 29 days, small intestine) was “reduced”, the “ethanol mediated bacterial translocation to MLN (CFU)” value [5, 10] was “prevented” and the “ethanol mediated bacterial translocation to liver (CFU)” value [5, 10] was “prevented”. For the same molecule, the “Frequencies of CD103+ CD11b+ DC populations” value [5, 11] was “increased”, the “Frequencies of LP-APCs (CD11c+, MHCII+)” value [5, 11] was “increased” and the “intestinal IL-10 expression (immunoblot)” value [5, 12] was “induced”. The “intestinal Reg3b expression (immunoblot)” value [5, 12] was “induced” and the “intestinal Reg3g expression (immunoblot)” value [5, 12] was “induced”.
For `Cc1cc2c(nc1N1CCC(Oc3ccc4c(c3)COC4)CC1)CNC2=O` [MK-4710], the IC50 [6] is listed as 17 nM.
For “IL-6: cytokine (Biolegend) used at 20 ng/ml on organoids”, the “mAChR4 expression (Chrm4 mRNA, mAChR4 protein)” value [7] was “induced” and the mAChR4 expression [8] was “induced”.
For `Cc1cc(C)c2c(N)c(C(=O)NC3CN(c4cccnc4)C3)sc2n1` [PT-3763], the EC50 [1] is given as 45 nM.
